Data on 10 compounds can be found in paper PMC5793121 (Toxins, 2018).

Series [1] addresses T1, mouse muscle type α1β1εδ nAChR (Mus musculus, UniProt P02716+P04756+P20782).
T1 construct: expressed in transfected cells; host or cells: mouse neuroblastoma Neuro2a, transient transfection (pRBG4 plasmids), co-expressed with Case12 calcium sensor
Kind of series: Calcium imaging of ACh-evoked [Ca2+]i rise in Neuro2a cells expressing muscle nAChR (Case12 sensor). The format is cell-based. As for the experimental part:
(§1) Mouse neuroblastoma Neuro2a cells were purchased from the Russian collection of cell cultures (Institute of Cytology, Russian Academy of Sciences, Saint Petersburg, Russia). Cells were cultured in DMEM (Paneco, Moscow, Russia) supplemented with 10% FBS. They were sub-cultured the day before transfection and were plated at a density of 10,000 cells per well in a 96-well black plate. On the next day Neuro2a cells were transiently transfected with plasmids coding mouse muscle α1β1δε nAChR (pRBG4-vector) and a fluorescent calcium sensor Case12 (pCase12-cyto vector, Evrogen, Moscow, Russia) in a molar ratio of 2:1 following a lipofectamine transfection protocol (ThermoFisher Scientific, Waltham, MA, USA). Human α7 nAChR (α7 nAChR-pCEP4) was expressed accordingly with a co-expression of the human chaperone Ric-3 (Ric3-pCMV6-XL5, OriGene, Rockville, MD, USA) in a molar ratio 4:1. The transfected cells were grown at 37 °C in a CO2 incubator for 48–72 h, before performing the calcium imaging assay.
Calcium imaging procedure was performed as published earlier. Briefly, after removing the growth medium, the transfected Neuro2a cells and cultivated SH-SY5Y cells were washed with a buffer containing 140 mM NaCl, 2 mM CaCl2, 2.8 mM KCl, 4 mM MgCl2, 20 mM HEPES, 10 mM glucose; pH 7.4. Neuro2a cells expressing muscle nAChR and the protein calcium sensor Case12 were proceeded directly, while SH-SY5Y cells expressing human α3-containing nAChRs natively were loaded with a fluorescent dye Fluo-4, AM (1.824 μM, ThermoFisher Scientific, Waltham, MA, USA) and a water-soluble probenecid (1.25 mM, ThermoFisher Scientific, Waltham, MA, USA) for 30 min at 37 °C and then were kept for 30 min at room temperature according to the manufacturer’s protocol.
To detect the human α7 nAChR-mediated calcium response, transfected Neuro2a cells were incubated with its positive allosteric modulator PNU120596 (10 μM, Tocris Bioscience, Bristol, UK) for 20 min at room temperature before acetylcholine (Sigma-Aldrich Chemie Gmbh, Munich, Germany) addition. To assess mouse muscle or human α3-containing nAChRs this step was skipped. […]
(§2) The plates were transferred to the multimodal microplate reader Hidex Sence (Hidex, Turku, Finland) where the cells were excited by light of 485 nm wavelength and emitted fluorescence was detected at 535 ± 10 nm. Fluorescence was recorded every 2 s for three minutes following agonist addition. Responses were measured as peak intensity minus basal fluorescence level and were expressed as a percentage of the maximal response obtained to agonist. Data files were analyzed using Hidex Sence software (Hidex, Turku, Finland) and OriginPro 7.5 software (OriginLab, Northampton, MA, USA, for statistical analysis).

Series [2] addresses T2, human neuronal homopentameric α7 nAChR (Homo sapiens, UniProt P36544).
T2 construct: expressed in transfected cells; host or cells: mouse neuroblastoma Neuro2a, transient transfection (α7 nAChR-pCEP4) with human Ric-3 (Ric3-pCMV6-XL5, OriGene)
Description: Calcium imaging of ACh-evoked [Ca2+]i rise in Neuro2a cells expressing α7 nAChR. As to conditions: 10 μM ACh (EC50); transfected Neuro2a cells, PNU120596 10 μM; 15 min preincubation; mean ± SEM, 4 independent experiments; read-out: IC50, inhibition of ACh-evoked calcium response of α7 nAChR. Type of series: cell-based. As for the experimental part: as §1, with “Human α7 nAChR (α7 nAChR-pCEP4) was expressed accordingly with a co-expression of the human chaperone Ric-3 (Ric3-pCMV6-XL5, OriGene, Rockville, MD, USA) in a molar ratio 4:1. The transfected cells were grown at 37 °C in a CO2 incubator for 48–72 h, before performing the calcium imaging assay.” left out
as §2

Series [3] deals with human neuronal heteromeric α3-containing nAChRs (α3β2, α3β4, etc.). Type of series: cell-based.
In series [4] the test system is male ICR mice. Description: Forelimb grip strength test (muscle relaxant effect) after intramuscular administration. The format is in vivo, mouse. As for the experimental part: 40 male ICR mice were divided equally into four groups: one control and three experimental groups. Animals of the control and experimental groups were treated with normal saline and with Az at doses of 0.03, 0.1 and 0.3 mg/kg, respectively. In addition 6 mice were treated with Az at dose of 0.01 mg/kg. The corresponding solutions were injected into the triceps muscles of the mouse forelimbs at a volume of 0.5 mL/kg per each limb. For all animals their basic forelimb grip strength was recorded before the substance administration with a 1027 grip strength meter (Columbus Instruments, Columbus, OH, USA). Further, their grip strength was measured 5, 10, 15, 20, 30, 60, 90 min after the Az (or normal saline) im administration.
Rocuronium was administered intramuscularly as described for the measurement of acute toxicity (Section 5.4.1). Muscle strength was assessed prior to administration of the substance and then 1, 2, 3, 4, 5 min after administration.

Series [5] concerns male ICR mice. Kind of series: in vivo. As for the experimental part: Az acute toxicity was estimated for its intravenous (iv) and intramuscular (im) administration to male ICR mice in a stepwise procedure.
For the iv route of administration, 20 mice were randomly divided in 5 groups of 4 animals each. The animals of each group received a single dose of Az (0.3, 0.4, 0.5, 0.6, or 0.7 mg/kg, respectively) injected into the lateral tail vein at a volume of 1 mL/kg. For the im route of administration, first two experimental groups of 3 animals each were formed. Az at doses of 0.75 and 1.0 mg/kg, respectively, was injected into the quadriceps muscle of the thigh (quadriceps femoris muscle) of two mouse hind limbs at a volume of 0.5 mL/kg to each muscle. Then, five experimental groups of 5 animals each were formed. Az was injected into the quadriceps muscle of the thigh (quadriceps femoris muscle) of the two hind limbs of male ICR mice at doses of 0.8, 0.775, 0.75, 0.725 and 0.7 mg/kg. The injection volume to each limb was 1 mL/kg. Further, neurotoxic manifestations were recorded in animals at 5, 10, 20, 30, 60 and 90 min and 24 h after administration using the functional observation battery, the number of death was counted as well.
For the iv and im route of administration, the median lethal dose (LD50) was calculated using a probit analysis. For the im route of administration, the maximum tolerated dose was determined.
Rocuronium was administered intramuscularly at doses of 0.13 mg/kg (n = 1), 0.1 mg/kg (n = 4) and 0.08 mg/kg (n = 4) in the triceps of the forelimbs of male ICR mice (8–9 weeks old). Control animals were injected with saline (n = 4). The volume of administration was 0.5 mL/kg in each limb.

The conditions of series [6]: human; cited from earlier work. An excerpt:
Pharmacokinetics and pharmacodynamics are the empirical mathematical models that describe the time course of drug effect after administration. Pharmacokinetics describes the disposition of drug in the organism, while pharmacodynamics relates the drug effects to their concentration in the plasma and at the site of action. They can be used to predict the drug action at different doses and by this way to optimize the safe and effective use of the drug. Information from pharmacokinetic studies can be used in the design and analysis of data from other toxicity studies. Several pharmacokineti ...

Series [7] has as its system rats. As to conditions: iv injection to rats; cited from earlier work. As for the experimental part:
Acute toxicity of Az was determined using different administration ways: intraperitoneal (ip), intramuscular (im) and intravenous (iv) injections.

In series [8] the test system is cultured human peripheral blood lymphocytes. The settings on record: concentrations without significant cytotoxic effect; cited from earlier work. An excerpt: Mutagenicity, that is the induction of permanent transmissible changes in the amount or structure of the genetic material of cells or organisms, is very important parameter of drug candidate. Highly mutagenic compounds can hardly be considered for drug development, therefore mutagenicity studies are a necessary phase in preclinical evaluations.

The procedure of series [9]:
The pharmacokinetic study was performed using 163 male ICR mice. Four experimental groups with 40 animals in each were formed. Three intact mice were used as control animals. The animals of the first two experimental groups were intravenously injected with 0.25 and 0.50 mg/kg [^125I]-Az, respectively. The animals of the other two experimental groups were intramuscularly injected with 0.25 and 0.50 mg/kg [^125I]-Az, respectively. To estimate Az elimination rate, animal blood samples were taken from the orbital sinus 5, 15, 30, 60 min and 1, 2, 4 and 24 h after [^125I]-Az administration. The obtained blood samples were weighed. For each indicated time point, [^125I]-Az concentration was calculated as a mean value in blood samples of five animals. The radioactivity (cpm) in the blood samples was counted using a Wallac 1470 WIZARD® Gamma Counter (Perkin Elmer, Waltham, MA, USA). […] Radioactivity data (cpm) were re-calculated to the concentration of [^125I]-Az in the obtained blood samples. The specific pharmacokinetic parameters (AUC (0 → t), Cmax, T1/2) of [^125I]-Az were estimated.

The test system of series [10] is mice. The settings on record: mouse, in vivo; cited from earlier work.
Series [11] deals with mice. As to conditions: 0.1 mg/kg; cited from earlier work.
Series [12] concerns hprt gene of CHO-k1 cells. As to conditions: n = 6.
Where [13] appears, read: intramuscular administration, 0.25 and 0.5 mg/kg, male ICR mice.

Entries after “also recorded” stand apart in the source; their conditions may differ. Read-outs that look alike come from different tables or passages of the source. Bounds are passed on as bounds.

T1 sequence (P09690 24-501): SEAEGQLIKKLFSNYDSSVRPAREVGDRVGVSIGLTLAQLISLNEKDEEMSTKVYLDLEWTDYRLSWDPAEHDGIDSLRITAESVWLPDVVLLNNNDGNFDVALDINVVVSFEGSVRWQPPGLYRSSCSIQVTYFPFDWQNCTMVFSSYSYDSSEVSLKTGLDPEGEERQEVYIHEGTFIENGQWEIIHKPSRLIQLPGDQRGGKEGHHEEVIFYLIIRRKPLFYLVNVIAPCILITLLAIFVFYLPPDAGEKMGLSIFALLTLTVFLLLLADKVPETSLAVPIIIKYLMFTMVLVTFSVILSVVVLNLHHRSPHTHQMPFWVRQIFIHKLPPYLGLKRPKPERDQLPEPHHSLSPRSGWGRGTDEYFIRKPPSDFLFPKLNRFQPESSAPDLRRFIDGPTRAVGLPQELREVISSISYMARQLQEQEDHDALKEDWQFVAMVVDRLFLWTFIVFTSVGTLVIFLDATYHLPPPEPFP
T1 sequence (P04756 21-457): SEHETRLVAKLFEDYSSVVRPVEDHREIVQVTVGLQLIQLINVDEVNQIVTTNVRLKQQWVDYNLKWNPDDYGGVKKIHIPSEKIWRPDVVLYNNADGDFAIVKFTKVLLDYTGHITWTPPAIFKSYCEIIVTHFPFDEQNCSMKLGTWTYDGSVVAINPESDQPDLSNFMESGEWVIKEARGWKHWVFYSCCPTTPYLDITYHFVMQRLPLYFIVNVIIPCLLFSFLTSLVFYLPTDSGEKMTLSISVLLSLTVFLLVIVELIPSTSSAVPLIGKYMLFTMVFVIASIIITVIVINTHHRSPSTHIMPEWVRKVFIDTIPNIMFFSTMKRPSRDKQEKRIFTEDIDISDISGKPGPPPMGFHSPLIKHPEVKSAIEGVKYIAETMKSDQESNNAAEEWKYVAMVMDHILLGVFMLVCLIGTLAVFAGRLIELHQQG
T1 sequence (P02716 25-520): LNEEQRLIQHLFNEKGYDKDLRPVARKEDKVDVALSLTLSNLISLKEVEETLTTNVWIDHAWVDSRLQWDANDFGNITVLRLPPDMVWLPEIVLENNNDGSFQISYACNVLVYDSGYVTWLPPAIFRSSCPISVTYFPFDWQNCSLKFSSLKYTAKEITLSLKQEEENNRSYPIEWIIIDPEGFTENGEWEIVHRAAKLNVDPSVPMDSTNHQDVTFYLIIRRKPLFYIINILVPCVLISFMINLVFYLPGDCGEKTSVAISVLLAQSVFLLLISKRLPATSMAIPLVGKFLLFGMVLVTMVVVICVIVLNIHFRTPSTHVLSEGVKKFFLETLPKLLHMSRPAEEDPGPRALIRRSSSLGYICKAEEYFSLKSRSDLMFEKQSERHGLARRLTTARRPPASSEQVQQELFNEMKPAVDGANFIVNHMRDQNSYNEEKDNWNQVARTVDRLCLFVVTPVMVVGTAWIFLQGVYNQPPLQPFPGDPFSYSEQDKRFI
T1 sequence (P20782 21-493): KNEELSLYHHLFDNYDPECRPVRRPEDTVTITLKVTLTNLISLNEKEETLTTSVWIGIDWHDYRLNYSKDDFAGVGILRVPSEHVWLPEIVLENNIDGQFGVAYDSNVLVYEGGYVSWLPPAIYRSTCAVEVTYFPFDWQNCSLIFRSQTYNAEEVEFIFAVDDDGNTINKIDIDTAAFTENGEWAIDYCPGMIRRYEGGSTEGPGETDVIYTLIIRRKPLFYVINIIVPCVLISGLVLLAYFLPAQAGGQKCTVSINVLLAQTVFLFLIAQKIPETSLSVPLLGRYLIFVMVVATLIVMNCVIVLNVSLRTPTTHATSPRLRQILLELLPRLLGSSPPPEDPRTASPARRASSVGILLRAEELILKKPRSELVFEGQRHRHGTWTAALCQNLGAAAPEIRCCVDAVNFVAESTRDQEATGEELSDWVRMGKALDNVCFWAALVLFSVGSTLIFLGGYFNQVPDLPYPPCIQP
T2 sequence (P36544 23-502): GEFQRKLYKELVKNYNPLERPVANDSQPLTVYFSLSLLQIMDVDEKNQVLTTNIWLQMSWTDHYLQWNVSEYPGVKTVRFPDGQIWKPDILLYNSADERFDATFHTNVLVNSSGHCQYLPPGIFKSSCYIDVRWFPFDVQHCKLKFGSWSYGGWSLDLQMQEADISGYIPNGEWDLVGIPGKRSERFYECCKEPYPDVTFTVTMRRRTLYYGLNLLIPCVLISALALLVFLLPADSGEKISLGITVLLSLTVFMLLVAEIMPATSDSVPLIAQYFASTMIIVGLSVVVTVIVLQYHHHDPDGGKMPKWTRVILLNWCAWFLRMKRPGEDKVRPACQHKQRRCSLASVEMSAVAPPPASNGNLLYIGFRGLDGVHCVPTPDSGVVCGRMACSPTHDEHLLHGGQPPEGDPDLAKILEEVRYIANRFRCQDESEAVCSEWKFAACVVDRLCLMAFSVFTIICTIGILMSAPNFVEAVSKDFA

Usually IC50 stands for the concentration at which inhibition is half-maximal. The term LD50 denotes the dose expected to kill half of the subjects tested. Take `C=CC[N+]1([C@H]2C[C@H]3[C@@H]4CC[C@H]5C[C@H](O)[C@@H](N6CCOCC6)C[C@]5(C)[C@H]4CC[C@]3(C)[C@H]2OC(C)=O)CCCC1` [rocuronium, Rocuronium Bromide, reference compound]: the IC50 was determined as 0.257 ± 0.0955 µM in [1] (30 μM ACh (EC100), transfected Neuro2a cells, Case12 sensor, 15 min preincubation, mean ± SEM, 4 independent experiments, read-out: IC50, inhibition of ACh-evoked calcium response of muscle nAChR) and 25.7 ± 4.5 µM in [2]. Also, in [1] (ratio of calcium imaging IC50 values α7 / muscle), the “selectivity to muscle receptor versus α7 nAChR” value was “about 100 times”. Further, the “inhibition of Nic induced responses” value in series [3] is recorded as “about 60%”. Also, the “effect on grip strength compared to control” value in series [4] (rocuronium 0.08 mg/kg im, n = 4) is reported as “no statistically significant difference; also recorded: no statistically significant relaxing effect”. Further, the grip strength in series [4] (rocuronium 0.13 mg/kg im, after 60 s, n = 1) stood at 0 kg. The “time after injection at which effect disappeared” value in series [4] (rocuronium im) is given as not above 5 min. The “visible signs of toxicity” value in series [5] (rocuronium im 0.08 mg/kg) was “did not induce visible signs of toxicity”. The “time after administration at which toxicity signs disappeared” value in series [5] (rocuronium im 0.1 mg/kg) lay within 3 to 4 min. In addition, the “time of first signs of intoxication after injection” value in series [5] (rocuronium im 0.13 mg/kg) was 30 s. For the same compound, the “time of death after injection” value in series [5] (rocuronium im 0.13 mg/kg, n = 1) worked out at 11.5 min. For the same compound, the lethality entry in [5] (rocuronium im 0.08 and 0.1 mg/kg, n = 4 each) is “did not cause the death of animals”. For the same compound, the Cmax in series [6] was 27 µg/kg. For the same compound, the excretion half-life in series [6] is listed as 71 min. The LD50 result in [7] was “about 0.3 mg/kg”. For the same compound, the genotoxicity entry in series [8] is on record as “capable of causing genotoxicity via clastogenic effects”.

In the case of diiodoazemiopsin [[^125I]-Az], in series [9] (during 24 h, both iv and im administration), the “removal from the free blood flow” value is on record as “almost completely removed”. Besides, in [9] (setting [13]), the “half-life T1/2” value lay within 20 to 40 min and the “time within which maximum concentration (Cmax) was achieved” value is listed as “five”. Besides, in [9] (single intravenous injection, 0.25 and 0.5 mg/kg, male ICR mice), the “excretion half-life (T1/2)” value lay in the range of 15 to 20 min. In [5] ([125I]-Az single iv and im 0.25 and 0.50 mg/kg, male ICR mice), the lethality result was “No lethality”.

For orientation: EC50 means the concentration needed to bring the measured effect to its halfway point. As to `CN1CCC[C@H]1c1cccnc1` [nicotine, reference compound], the EC50 in series [3] (read-out: EC50 of nicotine-induced calcium responses) was 22 ± 2 µM.

Regarding `COc1cc2c3cc1Oc1cc(ccc1O)C[C@@H]1c4c(cc(OC)c(O)c4Oc4ccc(cc4)C[C@@H]3N(C)CC2)CC[N+]1(C)C` [(+)-tubocurarine], in series [10], the LD50 is reported as 0.11 mg/kg.

On to `CC(=O)O[C@H]1C[C@@H]2CC[C@@H]3[C@H](CC[C@@]4(C)[C@H]3C[C@H]([N+]3(C)CCCCC3)[C@@H]4OC(C)=O)[C@@]2(C)C[C@@H]1[N+]1(C)CCCCC1` [pancuronium], for which the “decrease of grip strength” value in series [11] is 24.1%.

Regarding `CCN(N=O)C(N)=O` [ethylnitrosurea, reference compound], the “frequency of mutations in the hprt gene” value in series [12] (positive control 6.25 and 12.5 μg/mL, absence of S9) is on record as 33.9–39.5 × 10^−6.

Turning to α-conotoxin MII [reference compound], the half-maximal inhibitory concentration (IC50) in series [3] (read-out: IC50, inhibition of calcium responses induced by 100 µM nicotine) is 0.06 ± 0.004 µM.

Consider `CC(=O)O[C@H]1C[C@@H]2CC[C@@H]3[C@H](CC[C@@]4(C)[C@H]3C[C@H]([N+]3(C)CCCCC3)[C@@H]4OC(C)=O)[C@@]2(C)C[C@@H]1N1CCCCC1` [vecuronium], for which the Cmax result in [6] was “about 1 µg/mL”. In series [10], the LD50 was 0.05 mg/kg.

As for `Cc1ccc2cc3c(ccc4ccccc43)c3c2c1CC3` [methylcholanthrene, reference compound], in series [12] (positive control 2.5 and 5 μg/mL, presence of S9), the “frequency of mutations in the hprt gene” value is given as 35.7–45.7 × 10^−6.

In the case of `COc1ccc(CC2c3cc(OC)c(OC)cc3CC[N+]2(C)CCC(=O)OCCCCCOC(=O)CC[N+]2(C)CCc3cc(OC)c(OC)cc3C2Cc2ccc(OC)c(OC)c2)cc1OC` (stereo not drawn) [atracurium], in series [6], the excretion half-life was 17 min.
